These are literature values, as cited in patent publication US20130052262A1, “DABIGATRAN ETEXILATE-CONTAINING ORAL PHARMACEUTICAL COMPOSITION” (priority 2010, published 2013).

For the series the following is noted: in the acidic environment.

The structures appear in SMILES notation.

As for `CCCCCCOC(=O)NC(=N)c1ccc(NCc2nc3cc(C(=O)N(CCC(=O)OCC)c4ccccn4)ccc3n2C)cc1` [dabigatran etexilate, 3-[(2-{[4-(hexyloxycarbonylamino-imino-methyl)-phenylamino]-methyl}-1-methyl-1H-benzimidazole-5-carbonyl)-pyridine-2-yl-amino]-propionic acid ethyl ester], the pH-dependent solubility result is on record as “greatly increased”.
